Experimental data taken from patent US8349875B2, “Dual-acting antihypertensive agents” (Theravance, Inc., priority 2007, dated 2013).

Molecular target: T1, human AT1 receptor (Homo sapiens, UniProt P30556)
T1 construct: expressed in transfected cells; host or cells: CHO-K1
T1 sequence (P30556 1-359): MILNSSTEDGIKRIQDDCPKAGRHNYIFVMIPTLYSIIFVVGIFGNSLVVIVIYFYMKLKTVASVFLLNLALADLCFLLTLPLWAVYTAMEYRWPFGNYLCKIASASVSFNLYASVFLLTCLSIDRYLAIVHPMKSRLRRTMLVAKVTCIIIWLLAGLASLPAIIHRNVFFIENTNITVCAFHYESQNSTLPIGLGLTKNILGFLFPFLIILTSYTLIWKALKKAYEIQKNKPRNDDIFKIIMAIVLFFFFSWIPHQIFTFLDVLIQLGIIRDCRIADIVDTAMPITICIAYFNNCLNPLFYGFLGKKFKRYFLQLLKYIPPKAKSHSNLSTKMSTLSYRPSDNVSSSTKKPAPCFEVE
Assay: AT1 radioligand binding assay (Assay 1)
Conditions: displacement of [Eu]AngII 2 nM, membranes of CHO-K1 cells expressing human AT1 receptor
Protocol: These in vitro assays were used to assess the ability of test compounds to bind to the AT1 and the AT2 receptors.
Chinese hamster ovary (CHO-K1) derived cell lines stably expressing the cloned human AT1 or AT2 receptors, respectively, were grown in HAM's-F12 medium supplemented with 10% fetal bovine serum, 10 μg/ml penicillin/streptomycin, and 500 μg/ml geneticin in a 5% CO2 humidified incubator at 37° C. AT2 receptor expressing cells were grown in the additional presence of 100 nM PD123,319 (AT2 antagonist). When cultures reached 80-95% confluence, the cells were washed thoroughly in PBS and lifted with 5 mM EDTA. […]
Binding assays were performed in 96-well Acrowell filter plates (Pall Inc., cat. #5020) in a total assay volume of 100 μL, with 0.2 μg membrane protein for membranes containing the human AT1 receptor, or 2 μg membrane protein for membranes containing the human AT2 receptor in assay buffer (50 mM Tris/HCl pH 7.5 at 20° C., 5 mM MgCl2, 25 μM EDTA, 0.025% BSA). […] Non-specific binding was determined in the presence of 10 μM unlabeled angiotensin-II. […] Filter-bound [Eu]AngII was quantitated immediately on a Fusion plate reader (PerkinElmer) using Time Resolved Fluorescence (TRF). Binding data were analyzed by nonlinear regression analysis with the GraphPad Prism Software package (GraphPad Software, Inc., San Diego, Calif.) using the 3-parameter model for one-site competition. […]

4′-2-Butyl-4-chloro-5-[((S)-2-mercaptomethyl-4-methylpentanoylamino)methyl]imidazol-1-ylmethylbiphenyl-2-carboxylic Acid [Example 1]
pKi at the AT1 receptor: greater than 7.0
